From publication PMC5289892 (ACS chemical biology, 2016)

Experiments:
[1] = target: T1, mouse COX-2 (Mus musculus, UniProt Q05769); assay: Purified COX-2 enzyme inhibition assay; type: biochemical
T1 sequence (Q05769 18-604): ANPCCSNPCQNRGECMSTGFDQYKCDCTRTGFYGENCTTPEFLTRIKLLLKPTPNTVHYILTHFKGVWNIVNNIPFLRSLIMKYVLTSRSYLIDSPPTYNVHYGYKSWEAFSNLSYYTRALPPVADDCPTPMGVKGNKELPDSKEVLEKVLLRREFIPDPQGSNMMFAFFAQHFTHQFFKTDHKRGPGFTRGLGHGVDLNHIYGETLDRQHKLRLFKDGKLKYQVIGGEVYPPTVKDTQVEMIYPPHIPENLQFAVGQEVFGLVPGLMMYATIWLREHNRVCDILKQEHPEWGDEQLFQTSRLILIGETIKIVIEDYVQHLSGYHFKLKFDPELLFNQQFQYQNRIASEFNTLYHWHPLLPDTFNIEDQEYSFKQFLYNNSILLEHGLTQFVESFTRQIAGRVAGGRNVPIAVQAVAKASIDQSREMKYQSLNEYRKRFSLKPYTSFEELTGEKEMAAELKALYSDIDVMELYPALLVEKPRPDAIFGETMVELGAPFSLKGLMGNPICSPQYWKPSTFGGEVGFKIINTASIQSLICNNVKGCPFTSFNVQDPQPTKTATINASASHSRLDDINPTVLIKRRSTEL

[2] = system: primary human mammary epithelial cells (HMEC); assay: Cell viability assay; type: cell-based; details: 48 h, read-out: EC50 cytostatic effect
[3] = system: 1483 HNSCC cells; assay: Cell viability assay; type: cell-based, human; details: 48 h
[4] = system: 1483 HNSCC xenografts; assay: In vivo tumor growth, 1483 HNSCC xenografts; details: 1483 xenograft-bearing nude mice, daily intraperitoneal, 14 days
[5] = system: 1483 HNSCC cells; assay: Reversibility of inhibition of 1483 cell growth; type: cell-based, human; details: 1483 cells
[6] = Animal weight in xenograft-bearing mice; details: 1483 xenograft-bearing mice, 14 days treatment
[7] = target: T2, ovine COX-1 (Ovis aries, UniProt P05979); assay: Purified COX-1 enzyme inhibition assay; type: biochemical
T2 sequence (P05979 25-600): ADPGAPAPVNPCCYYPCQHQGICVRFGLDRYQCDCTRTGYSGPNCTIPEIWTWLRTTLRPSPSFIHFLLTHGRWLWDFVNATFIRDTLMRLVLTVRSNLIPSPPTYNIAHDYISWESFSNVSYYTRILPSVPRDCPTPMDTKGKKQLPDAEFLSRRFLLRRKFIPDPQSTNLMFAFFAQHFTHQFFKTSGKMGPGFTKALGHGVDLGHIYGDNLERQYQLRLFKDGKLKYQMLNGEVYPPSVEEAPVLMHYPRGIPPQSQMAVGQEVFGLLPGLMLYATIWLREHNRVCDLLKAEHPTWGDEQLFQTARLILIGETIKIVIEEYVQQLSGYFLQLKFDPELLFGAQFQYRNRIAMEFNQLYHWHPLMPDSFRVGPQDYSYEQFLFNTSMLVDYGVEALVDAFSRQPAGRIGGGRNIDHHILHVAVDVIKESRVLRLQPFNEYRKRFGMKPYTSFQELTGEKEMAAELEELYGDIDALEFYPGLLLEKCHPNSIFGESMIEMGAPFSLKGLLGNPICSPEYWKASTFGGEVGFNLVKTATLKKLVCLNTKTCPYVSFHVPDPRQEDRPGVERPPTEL

## COc1cc([C@@H]2c3cc4c(cc3[C@H](O)[C@H]3COC(=O)[C@H]23)OCO4)cc(OC)c1OC [Podophyllotoxin]
[1]
  COX-2 inhibition, in words: inactive
[2]
  EC50: 360 nM
[3]; 1483 cells
  lowest cell number reached, % of vehicle-treated cultures: ~ 35%
[3]; Homo sapiens, read-out: EC50 reduction in cell number
  EC50: 62 nM
[4]
  effect on tumor growth: no effect on tumor size
[5]; 10 μM for 5 h, washout, further 72 h
  effect of washout on reduction in cell number: significant recovery of cell number
[5]; 10 μM, 72 h
  reduction of total cell number: ~ 80%
[6]
  effect on animal weight: decrease in animal weight
[7]
  COX-1 inhibition, in words: inactive
